{"source": "paper PMC13401508", "about": "(Pharmacological research, 2026)", "key": {"[1]": {"assay": "Thermodynamic solubility in PBS, pH 7.4", "assay_type": "physicochemical"}, "[2]": {"assay": "Log D by shake flask (pH 7.4)", "assay_type": "physicochemical", "details": "pH 7.4, octanol/phosphate buffer", "procedure": "Sodium Phosphate buffer pH 7.4 (10 mM) was used as the aqueous phase and octanol was used as the organic phase. […] The sealed plate was incubated at 25 °C with continuous agitation at 2000 rpm for 2 hrs. Samples were then separated by centrifugation, diluted 100-fold with a mixture of H20 and acetonitrile containing internal standard, and analyzed via LC-MS/MS. The Log D value was calculated using the following equation: […]"}, "Caco-2 cell monolayer": {"tested_on": "Caco-2 cell monolayer", "assay": "Caco-2 bidirectional permeability", "assay_type": "in vitro ADME", "details": "10 µM", "procedure": "To prepare the Caco-2 cell monolayer, 50 µL and 25 µL of cell culture medium (Dulbecco’s modified Eagle’s medium, DMEM) were added to each well of the inserts and reservoir, respectively, within a 96-well HTS Transwell plate (Corning, NY, USA). The plate was incubated at 37 °C and 5% CO2 for 1 hr. prior to cell seeding. Caco-2 cells were then diluted to 6.86 x 10^5 cells/mL using culture medium and 50 µL of cell suspension were seeded into the plate, and incubated at 37 °C, 5% CO2, and 95% relative humidity for 14-18 days. During this time, the cells were cultivated with media replacements occurring every other day. Cells were allowed to grow and differentiate and the integrity of the Caco-2 cell monolayer was evaluated by measurement of transepithelial electrical resistance (TEER) using a Millicell Epithelial Volt-Ohm measuring system (Millipore, USA).\nPrior to the assay, the established monolayer was washed twice with pre-warmed HBSS and incubated at 37 °C for 30 minutes. A bidirectional permeability assay was performed simultaneously using two different plates as described previously (Supplementary Reference: Cui Y, Desevaux C, Truebenbach I, Sieger P, Klinder K, Long A, Sauer A. A Bidirectional Permeability Assay for beyond Rule of 5 Compounds. Pharmaceutics. 2021 Jul 27;13(8):1146. doi: 10.3390/pharmaceutics13081146. PMID: 34452112; PMCID: PMC8400635.): one assessed permeability from the apical to the basolateral side, while the other assessed from the basolateral to the apical side. […] For apical to basolateral permeability, 108 µL of working solution was loaded into the apical compartment, whereas 308 µL of working solution was added to the basolateral compartment for basolateral to apical permeability. The samples collected from donor and receiver compartment were mixed with 72 µL transport buffer and 240 µL of acetonitrile containing internal standard (IS, 100 nM alprazolam, 200 nM Caffeine and 100 nM tolbutamide), centrifuged at 1000 rpm for 10 minutes. […] In doing so, the following equations were used: […]\nWhere, Papp is apparent permeability (cm/s x 10^-6), dQ/dt is the rate of drug transport (pmol/second), A is the surface area of the membrane (cm^2), and D0 is the initial donor concentration (nM; pmol/cm^3). (B-A) indicates basolateral to apical permeation, where (A-B) indicates apical to basolateral."}, "[3]": {"assay": "Stability in liver microsomes with NADPH and UDPGA", "assay_type": "in vitro ADME", "details": "liver microsomes; all species (human, monkey, dog, rat, mouse), NADPH and UDPGA added; read-out: t½ in liver microsomes", "procedure": "Test samples were incubated at 37 °C, and Verapamil was used as a positive control. Samples were drawn from the incubation solution at different timepoints, centrifuged, then diluted with ultra-pure H20 and analyzed via LC-MS/MS. The natural logarithm of the remaining parent drug at each timepoint was plotted against incubation time, and the following equation was used to calculate the in vitro half-life:\nin vitro t1/2 = -(0.693/k), where k is the rate constant."}, "[4]": {"tested_on": "Salmonella typhimurium TA98 & TA100", "assay": "Mini-Ames assay", "assay_type": "cell-based", "details": "with or without S9 mix", "procedure": "The mini-AMES assay was performed in Pharmaron, Inc. following the standard protocol as developed by the in-house scientist. […] The assay was conducted in the presence or absence of the S9 mix along with concurrent negative/solvent control and positive controls."}, "PDGF-AA": {"tested_on": "PDGF-AA", "assay": "PDGF-AA protein in conditioned media by ELISA", "assay_type": "cell-based, human", "details": "conditioned media of PC3-ML, ARCaP-M and C4–2B cells", "procedure": "Human and mouse specific CXCL5, PDGF-AA ELISA kits were obtained from R&D Systems, USA. All ELISAs were performed using the manufacturer’s protocol.\nFig. 2. […] NF-κB activity was measured by absorbance at 450 nm (n = 3 ± SD; * p < 0.05). […] C) PDGF-AA protein levels were determined in the three PC cell line-derived conditioned media by ELISA. In both panels: n = 3 ± SD; * p < 0.05."}, "CXCL5": {"tested_on": "CXCL5", "assay": "CXCL5 mRNA by qRT-PCR in HS5 cells", "assay_type": "cell-based, human", "details": "PDGF-AA activated HS5 cells, 24 hrs", "procedure": "Total RNA was extracted from cells using miRNeasy kits (Qiagen), and cDNA was prepared as described previously. Gene specific TaqMan Probes were obtained from Applied Bio system, Thermo-Fisher, USA. qRT-PCR was performed using an ABI Quant Studio real-time PCR.\nFig. 3. […] CXCL5 mRNA expression was measured by qRT-PCR. […] Secreted CXCL5 in CM was measured by ELISA (n = 3 ± SD; * p < 0.05). […] CXCL5 mRNA expression was measured by qRT-PCR (n = 3 ± SD; * p < 0.05)."}, "RM1-BM-Luc cells": {"tested_on": "RM1-BM-Luc cells", "assay": "Combination and survival study, RM1-BM-Luc syngeneic model", "assay_type": "in vivo, C57BL/6 mice", "details": "RM1-BM-Luc in C57BL/6, day 14, IVMT-Rx-4 30 mg/kg and/or Docetaxel 5 mg/kg 3X a week for two weeks", "procedure": "Both syngeneic (C57BL/6) and athymic nude mice were used for survival studies. Tumor cells (RM1-BM-Luc or PC3-ML-Luc) were injected intracardially in a cohort of 40 animals. […] In the combination groups, both regimens were administered 3X a week for two-weeks at the same dose as a single therapy. Animals were imaged periodically and maintained until euthanization was required.\nFig. 5. […] A and B) RM1-BM-Luc (A) or PC3-ML-Luc (B) cells were implanted I.C. in C57BL/6 and athymic nude mice, respectively. […] BLI images were used to detect bone metastases (the percentage incidence of bone metastases in animals was calculated at a single time point, day 14). Values are presented at the bottom panel of the respective group (red, number of animals positive for metastasis and black, total number of experimental animals). C and D) Animals were kept until mandated euthanasia based on IACUC guidelines, considered as disease associated death. The Kaplan–Meier survival curves were generated using GraphPad in both models as described in (A) and (B), respectively. E and F) Log-rank test was performed and values between different experimental groups are presented."}}}
{"smiles": "Cc1cc(NC(=O)CCc2nnc(-c3ccccc3)o2)c(C)cc1N", "note": "[IVMT-Rx-4]", "values": [{"measurement": "Thermodynamic solubility in PBS, pH 7.4", "setting": "[1]", "result": "~160", "unit": "mg/ML"}, {"measurement": "solubility thermodynamic", "setting": "[1]; pH 7.4, aqueous buffer, thermodynamic from solid", "result": 160, "unit": "mg/mL"}, {"measurement": "logD at 2 h", "setting": "[2]", "result": 1.49}, {"measurement": "Caco-2 Bidirectional A-B", "setting": "Caco-2 cell monolayer; apical to basolateral", "result": 21.5, "unit": "×10⁻⁶ cm/s"}, {"measurement": "Caco-2 Bidirectional B-A", "setting": "Caco-2 cell monolayer; basolateral to apical", "result": 19.9, "unit": "×10⁻⁶ cm/s"}, {"measurement": "half-life", "setting": "[3]", "result": "> 3.5", "unit": "h"}, {"measurement": "cytotoxicity to tester strains in Mini-Ames assay", "setting": "[4]; 1.5 to 1000 μg/well", "result": "No obvious cytotoxicity"}, {"measurement": "Mini-Ames Assay (2-strain option: TA98 & TA100)", "setting": "[4]", "result": "Weakly positive for 2 strains"}, {"measurement": "PDGF-AA protein level", "setting": "PDGF-AA", "result": "decreased PDGF-AA"}, {"measurement": "CXCL5 mRNA level", "setting": "CXCL5", "result": "significantly decreased"}, {"measurement": "bone metastases, Incident/Total number tested", "setting": "RM1-BM-Luc cells", "result": "3/8"}]}
